pIC50: −log10 of the molar value.
The compounds below were run on Bmi-1 (assay: Sandwich ELISA Assay (Bmi-1 ELISA in HT-1080 cells)).
Format: cell-based, human
How it was run: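 HT-1080 cells (8000/well) were treated with compounds in 0.5% final DMSO for 40-48 h at 37°C and then lysed. Bmi-1 in lysates was measured by sandwich ELISA: overnight capture at 4°C on mouse monoclonal, rabbit anti-Bmi-1 detection, HRP anti-rabbit, TMB. OD450 was read with an OD570 reference against a recombinant GST-Bmi-1 standard curve (0-8000 pg/mL).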

Row | Structure (SMILES) | pIC50
1 | Cc1nc2ccccn2c1-c1ccnc(Nc2ccc3c(c2)OCO3)n1 [Cpd 123, N-(1,3-benzodioxol-5-yl)-4-(2-methylimidazo[1,2-a]pyridin-3-yl)pyrimidin-2-amine] | > 6.30
2 | Cc1nc2ncccn2c1-c1ccnc(Nc2ccc3c(c2)OCO3)n1 [Cpd 124, N-(1,3-benzodioxol-5-yl)-4-(2-methylimidazo[1,2-a]pyrimidin-3-yl)pyrimidin-2-amine] | > 6.30
3 | Cc1nc2ncccn2c1-c1ccnc(N(C)c2ccc(I)cc2)n1 [Cpd 125, N-(4-iodophenyl)-N-methyl-4-(2-methylimidazo[1,2-a]pyrimidin-3-yl)pyrimidin-2-amine] | > 6.30
4 | Cc1nc2ncccn2c1-c1ccnc(Nc2ccc(Br)cc2)n1 [Cpd 126, N-(4-bromophenyl)-4-(2-methylimidazo[1,2-a]pyrimidin-3-yl)pyrimidin-2-amine] | > 6.30
5 | Cc1nc2ccccn2c1-c1ccnc(Nc2cccc(Br)c2)n1 [Cpd 127, N-(3-bromophenyl)-4-(2-methylimidazo[1,2-a]pyridin-3-yl)pyrimidin-2-amine] | > 6.30
6 | Cc1nc2ccccn2c1-c1ccnc(Nc2ccc(N(C)C)cc2)n1 [Cpd 129, N,N-dimethyl-N′-[4-(2-methylimidazo[1,2-a]pyridin-3-yl)pyrimidin-2-yl]benzene-1,4-diamine] | > 6.30
7 | CCN(CC)c1ccc(Nc2nccc(-c3c(C)nc4ccccn34)n2)cc1 [Cpd 130, N,N-diethyl-N′-[4-(2-methylimidazo[1,2-a]pyridin-3-yl)pyrimidin-2-yl]benzene-1,4-diamine] | > 6.30
8 | CC(=O)c1ccc(Nc2nccc(-c3c(C)nc4ncccn34)n2)cc1 [Cpd 131, 1-(4-{[4-(2-methylimidazo[1,2-a]pyrimidin-3-yl)pyrimidin-2-yl]amino}phenyl)ethanone] | > 6.30
9 | Cc1nc2ccc(Cl)cn2c1-c1csc(Nc2ccc(Br)cc2Cl)n1 [Cpd 132, N-(4-bromo-2-chlorophenyl)-4-(6-chloro-2-methylimidazo[1,2-a]pyridin-3-yl)-1,3-thiazol-2-amine] | > 6.30
10 | Cc1nc2ccc(Cl)cn2c1-c1csc(Nc2ccccc2)n1 [Cpd 133, 4-(6-chloro-2-methylimidazo[1,2-a]pyridin-3-yl)-N-phenyl-1,3-thiazol-2-amine] | > 6.30
11 | Clc1ccc2ncc(-c3csc(Nc4c(Br)cc(Br)cc4Br)n3)n2c1 [Cpd 135, 4-(6-chloroimidazo[1,2-a]pyridin-3-yl)-N-(2,4,6-tribromophenyl)-1,3-thiazol-2-amine] | > 6.30
12 | Clc1cc(Cl)c(Nc2nc(-c3cnc4ccc(Cl)cn34)cs2)c(Cl)c1 [Cpd 136, 4-(6-chloroimidazo[1,2-a]pyridin-3-yl)-N-(2,4,6-trichlorophenyl)-1,3-thiazol-2-amine] | 6.00 to 6.30
13 | Cc1nc2ccccn2c1-c1ccnc(N(C)c2ccc(N(C)C)cc2)n1 [Cpd 137, N,N,N′-trimethyl-N′-[4-(2-methylimidazo[1,2-a]pyridin-3-yl)pyrimidin-2-yl]benzene-1,4-diamine] | > 6.30
14 | CCN(CC)c1ccc(N(C)c2nccc(-c3c(C)nc4ccccn34)n2)cc1 [Cpd 138, N,N-diethyl-N′-methyl-N′-[4-(2-methylimidazo[1,2-a]pyridin-3-yl)pyrimidin-2-yl]benzene-1,4-diamine] | > 6.30
15 | Cc1nc2ccccn2c1-c1ccnc(N(C)c2ccc3c(c2)OCO3)n1 [Cpd 139, N-(1,3-benzodioxol-5-yl)-N-methyl-4-(2-methylimidazo[1,2-a]pyridin-3-yl)pyrimidin-2-amine] | > 6.30
16 | Cc1nc2ncccn2c1-c1ccnc(N(C)c2ccccc2Cl)n1 [Cpd 140, N-(2-chlorophenyl)-N-methyl-4-(2-methylimidazo[1,2-a]pyrimidin-3-yl)pyrimidin-2-amine] | > 6.30
17 | COc1cc(C)c(Nc2nccc(-c3c(C)nc4ccccn34)n2)c(C)c1 [Cpd 141, N-(4-methoxy-2,6-dimethylphenyl)-4-(2-methylimidazo[1,2-a]pyridin-3-yl)pyrimidin-2-amine] | > 6.30

From patent publication US8680113B2, “BMI-1 protein expression modulators” (PTC Therapeutics, Inc., priority 2008, dated 2014)
